Assay: Human HepG2 cell viability assay in 384 well format
Format: toxicity, cell-based
Design: dose 125 nL, time 70.5 hour; cytotoxicity at 70.5 h: concentration not given beside the values
Conditions: HepG2 cells, read-out: Inhibition

Compound | cytotoxicity at 70.5 h [%]
Cc1nc(C2CCCN(C(=O)c3ccc(Cl)cn3)C2)no1 (centres undefined) | -5.54
O=C(NC[C@]12COC[C@H]1CN(Cc1cccnc1)C2)c1ccsc1 | 11.5
Cc1nn(C)c2ncc(CN3CCN(Cc4ccco4)CC3)cc12 | -18.7
c1cnnc(NCC2CN(CCn3cccn3)CCO2)c1 (centres undefined) | -2.81
CCN1CCN(C(=O)c2cc(C(=O)OC)nn2-c2ccccc2)CC1 | 0.312
Cc1cnn(CC2CCCCN2Cc2c(C)noc2C)c1 (centres undefined) | -14.5
CC(C)CC(=O)N1CC(=O)c2sc(NC3CCCCC3)nc2C1 | 1.17
CC(=O)c1cccc(OCC(=O)NS(=O)(=O)c2ccc(Br)s2)c1 | -2.56
COCCN1Cc2ccccc2C2(CCN(C(=O)c3ccco3)CC2)C1 | 1.21
O=C1CN(C(=O)C2CCCCC2)CC(O)CN1Cc1ccc(Cl)cc1 (centres undefined) | -5.09
CNC(=O)CN(C)c1nc(-c2ccc(C(N)=O)cc2)nc2c1CCNC2 | -0.358
Cn1cnc2c1CCN(Cc1nc(Cc3ccccc3)no1)C2 | -3.21
Cc1cc(-c2ccc(=O)n(CCNC(=O)C3CCCCC3)n2)c(C)o1 | -1.98
O=C(N1CCOCC1)[C@@]12CCO[C@@H]1CCN(CC1CCCC1)C2 | 49.2
CC(SCCS(C)(=O)=O)c1nc(Cc2ccc(F)cc2)no1 (centres undefined) | -0.925
Cc1ncc2c(n1)CN(CCOCC(F)(F)F)CC2 | -4.14
Cc1ncc(-c2ccncc2)c(C2CCCN(C(=O)c3ccno3)C2)n1 (centres undefined) | 5.49
Cc1cc(CN2CCCn3nc(CCC(=O)O)cc3C2)ccc1F | 2.51
Cc1cccc(Nc2nccnc2C2CCCN2CC(N)=O)n1 (centres undefined) | -2.88
CN1CCO[C@@H]2CN(S(=O)(=O)c3cccs3)CC[C@@H]2C1 | -9.31
CN(C)C(C)(C)CNCc1c[nH]nc1-c1cc2ccccc2o1 | 10
O=C(NCCn1ccnc1)N1CCN(Cc2cccnc2)CC1 | -5.29
CC(=O)N1CCC(N2CCOC[C@H]2c2nc(-c3cccnc3)c[nH]2)CC1 | 17.9

Compound | cytotoxicity at 70.5 h [%]
Cc1cc(CNC(=O)Nc2cc(F)cc(N3CCCC3)c2)no1 | -13.7
Cc1cccc(-c2nc(C)nn2CN2CCC3(CC2)OCCO3)c1 | 11.8
CC(C)n1ccnc1C1CCN(C(=O)N2CCCC2)CC1 | -9.54
CC(=O)c1cn(CC(=O)N2CCC3(CC2)OCCO3)c2ccccc12 | -5.36
Cc1cc(CN2C[C@H](N3CCOCC3)[C@@H]3OCCC[C@@H]32)oc1C | -7.89
Cc1cc(CNC(=O)NC(C)c2ccccc2)no1 (centres undefined) | 0.144
CC(=O)N1CC2C[C@]2(NC(=O)c2ccco2)C1 (some centres undefined) | 18.4
CN1CC2(CCN(Cc3cccnc3)CC2)c2cc(F)ccc21 | -3.7
O=C(NCc1ccco1)[C@H]1C[C@H]2OCC[C@H]2N(C(=O)c2ccncc2)C1 | -12.4
CCCS(=O)(=O)NCCn1ccc(-c2cccs2)n1 | 25.9
Cc1nccn1CCN(C)C(=O)C1CCCN(C2CCOCC2)C1 (centres undefined) | -4.07
NC(=O)CC1CCN(S(=O)(=O)c2cnn(-c3ccccc3)c2)CC1 | -5.73
CNC(=O)COC(=O)c1ccn(-c2ccc(Cl)c(Cl)c2)n1 | 24.2
Cc1cc(C)c2cc(CNCc3cccnc3)c3nn(C)c(=O)n3c2c1 | -0.562
CN(C)CCN1CCO[C@@H]2CN(C(=O)Cc3ccsc3)CC[C@@H]2C1 | -8.58
O=C(CCS(=O)(=O)C1CCCC1)N1CCCC1c1ccsc1 (centres undefined) | -4.99
Nc1ncc(C(=O)N2CCN(c3nccs3)CC2)cc1Cl | -4.3
CSCCCN(CCN1CCOCC1)Cc1ccco1 | -9.79
CN1CC2(CCN(C(=O)c3cccc(-n4cccn4)c3)CC2)OC1=O | 21.3
CC1CCN(CCNC(=O)Nc2ccc(F)cc2Cl)CC1 | 9.06
COc1ccc2c(c1)c(-c1nc(N(C)C)ncc1CN)cn2C | 12.9
Cc1nc(C2CCCN2C(=O)c2ccc(N(C)C)nn2)no1 (centres undefined) | 25.8
O=C1CCN(C(=O)NCCc2c[nH]c3ccc(Cl)cc23)CCN1 | -8.44

Compound | cytotoxicity at 70.5 h [%]
O=C(Nc1cn[nH]c1)N1CCN(CCSc2ccccc2)CC1 | 1.53
Cc1nnc2n1CCN(C(C(=O)N1CCCCC1)c1ccccc1)C2 (centres undefined) | -1.38
CN(Cc1ccco1)c1ccc(-c2nccn2C)nn1 | 9.03
Cc1cnc(NC(=O)c2cccc(CN(C)Cc3ccno3)c2)s1 | -4.32
CN(CCCc1nccn1C)C(=O)C1CCN(C(=O)C2CC2)CC1 | 0.477
CN1CCN(C(=O)CC2CCN(CCc3ccccn3)CC2)CC1 | -0.784
COCC(=O)N1CCN(C(=O)CCc2ccsc2)CC1 | -3.39
Cc1cn2c(n1)CCC(NC(=O)c1csc(C(C)C)n1)C2 (centres undefined) | -0.273
O=C(CCn1cc(Cl)cn1)N1CCN(CC2CC2)[C@@H]2CS(=O)(=O)C[C@@H]21 | -10.2
O=C1CCSCC(C(=O)N2CCC(O)CC2)N1 (centres undefined) | -10.8
Cc1noc(C)c1CN(C)C(=O)c1ccc(NC2CC2)nc1 | 0.339
CCc1nccn1CCCNc1nccc(-c2c(C)nn(C)c2C)n1 | -16.7
CCOC(=O)N1CC2(CCNCC2)c2cc(Cl)ccc21 | -11.6
CN(C)Cc1nn(C)c2c1CCN(S(=O)(=O)c1cccs1)C2 | 1.38
CCCNc1nc(CS(=O)(=O)c2ccccc2)cs1 | -7.26
CNC(=O)[C@H]1C[C@@H]2CCN(c3nnc(C)s3)C[C@@H]2O1 | -8.39
COc1ccc(-c2cc3nn(CC(=O)NC(C)C)c(=O)n3c(C)n2)cc1 | 1.34
Cc1cc(CN2CCN(C(=O)NCc3csc(C)n3)CC2)on1 | -13
Cc1cc(C)nc(N2CCCC2c2[nH]ncc2C(=O)N(C)C)n1 (centres undefined) | -3.67
Cn1cc(C2CCCN2C(=O)c2ccc(Br)o2)cn1 (centres undefined) | -10.2
CC(C)(C)Nc1nc(-c2cccnc2)c(-c2ccnc(NCCO)n2)s1 | -9.49
Cc1nn(C)c(Cl)c1C1CCCN1Cc1cn2ccsc2n1 (centres undefined) | -1.16
Cc1nc(CN2C(=O)CC[C@@H]3[C@H]2CCN3C(=O)c2ccccn2)cs1 | -4.48

Compound | cytotoxicity at 70.5 h [%]
Cc1noc(C2CN(Cc3ccc4c(c3)CCO4)C2)n1 | -11.7
O=C(Nc1cc(-c2ccncc2)no1)C1CCC1 | -10.3
Cc1cccc(N2CCN(c3ccn4c(=O)[nH]nc4n3)CC2)c1C | 3.43
COc1ccc(CNC[C@H]2COCc3nc4cc(F)ccc4n32)cn1 | -18.3
CCC[C@@H]1CN(Cc2ccc(C(F)(F)F)nc2)C[C@H]1C(=O)O | -8.04
O=C(CCOc1ccc(Cl)cc1)N1CCN(c2cnccn2)CC1 | -11.5
CCOCCCNC(=O)NC(C)c1ccc(-n2cncn2)cc1 (centres undefined) | -5.55
CCN1CCCC(O)(CN(C)Cc2ccccc2F)C1 (centres undefined) | -9.61
O=C(Nc1ccccc1)c1ccc(NCc2nccs2)nn1 | -10
COCCN(CCOC)c1nc2c(s1)c(C)nn2C | -13.8
Cc1ccccc1C1(C(=O)NCCN2CCOCC2)CCOCC1 | -9.98
Cc1ccccc1N1CC2(CCN(S(=O)(=O)C3CC3)C2)CC1=O (centres undefined) | -14.8
COc1ccc(-c2cc(C3CC3)c(C#N)c(N)n2)cc1F | 11.2
CSCc1cccc(S(=O)(=O)N2CCCC2)c1 | -6.64
CN(C)c1cnn(Cc2nc3ccccc3n2C)c(=O)c1 | -12.8
CCCOCC1CCN(C(=O)c2cnc(-c3csc(C)n3)nc2O)C1 (centres undefined) | -8.59
CC(C)n1ccnc1C1CCCN(c2ccccn2)C1 (centres undefined) | -11.1
Cc1ccc(CN2CC[C@H](c3nc4cccc(C(N)=O)c4[nH]3)C2)cc1 | 31.1
COCCN1C(=O)[C@H]2CC[C@@H]1CN(S(=O)(=O)c1ccc(OC)cc1)C2 | -3.09
CCc1nnc2n1CCN(C(=O)C(C)Oc1cccc(C#N)c1)C2 (centres undefined) | 12.9
COc1ccc(Cl)cc1NCc1cc(C)on1 | -3.4
CCC(C)NC(=O)Cc1c(C)nc2c(c1C)c(=O)[nH]n2C (centres undefined) | -8.46
COC(=O)CNC(=O)c1cccc(C(=O)N(C)c2ccccc2)c1 | 30.5

Compound | cytotoxicity at 70.5 h [%]
Cc1nc2cc(=O)[nH]n2c(C)c1CNC(=O)c1cnn(C(C)(C)C)c1 | 4.01
Cc1cc(C(=O)N2CCCC(C)C2)ccc1NCc1nc(C2CC2)no1 (centres undefined) | -13.1
CC(C)OCCCN(Cc1cnn(C)c1)Cc1ccccn1 | 21.5
Cc1nn(CCC#N)c(C)c1CCC(=O)N(C)C | 13.3
COCC1CCN(CCCc2cn[nH]c2)CC1 | 19.8
COCCc1noc(CN2CCCC2c2c(C)nn(C)c2OC)n1 (centres undefined) | -3.49
Cc1oc(C)c(C(=O)N2CCN(Cc3cscn3)CC2)c1C | -7.99
Cc1cc(Br)ccc1NCc1ccc(C(=O)N(C)C)[nH]1 | 18.2
CCN(C)c1ncnc2c1CCN(C(=O)N1CCOCC1)CC2 | 6.06
c1cnc(-c2cnc(N3CCSCC3)nc2C2CC2)cn1 | -15.9
O=C(NCCCn1cncn1)c1ccc(-c2ccco2)[nH]c1=O | -3.92
Cc1cc(C)n(C2CN(CC(=O)NC3CCS(=O)(=O)C3)C2)n1 (centres undefined) | -9.43
Fc1cccc(-c2nnn3c2COC(CNc2ncccn2)C3)c1 (centres undefined) | 26.8
Cn1ccc2c(C(=O)N3CCCC(c4nnc[nH]4)C3)cccc21 (centres undefined) | 4.32
CCOCC1CN(S(C)(=O)=O)Cc2cnn(CC3CCOCC3)c21 (centres undefined) | -0.335
Cc1ccccc1-c1ncc(CNCc2csc(C(C)C)n2)s1 | -5.31
CNc1nc(CNC(=O)Nc2ccccc2OC(C)C)cs1 | 14
O=C(CNC1CCc2ncnn2C1)N(Cc1cccs1)C1CC1 (centres undefined) | 0.341
Cc1ccc2cccc(C(=O)NCC3CCN(C(C)C)C3)c2n1 (centres undefined) | 12
COc1ccccc1C(=O)NCC(c1cccn1C)N1CCOCC1 (centres undefined) | -6.22
Cc1nc(C)n(C2CCCN(C(=O)c3cccnc3NC(C)C)C2)n1 (centres undefined) | -9.03
CCc1ccc(S(=O)(=O)N2CCC3(CC(C(=O)NC)=NO3)C2)cc1 (centres undefined) | -10.7

— ChEMBL document CHEMBL3507680, “University of Dundee, Gates Library screen for HepG2 cell viability”
